This note sets out measurements from patent publication US8409550B2, “Method for treating skin with retinoids and retinoid boosters” (Unilever Home & Personal Care, USA, Division of Conopco, …, priority 2000, dated 2013).

Assay [1] relates to transglutaminase (TGase I). Put plainly: Transglutaminase (Tgase) ELISA assay in cultured keratinocytes with retinol and boosters. The conditions noted are these: for TG as % C Compd 1 / TG as % C Compd 2 / TG as % C, Compd 3: concentration one log below IC20; for TG as % C, Compd 3: Compound 3 alone; for Tgase levels (Mean): with 10^-7 M retinol. It is filed as cell-based, human. In general terms: ELISA stands for enzyme-linked immunosorbent assay.
Method: For this reason, a transalutaminase (Tgase) assay was utilised.
Thus TGase I is a useful marker of epidermal keratinocyte differentiation with high TGase I levels indicating a more differentiated state. An ELISA based TGase I assay, using a TGase I antibody, was used to assess the state of differentiation of the cultured keratinocytes in the examples that follow.
Keratinocytes (cultured as described above) were plated in 96 well plates at a density of 4,000-5,000 cells per well in 200 μl media. After incubation for two to three days, or until cells are ˜50% confluent, the media was changed to media containing test compounds (five replicates per test). The cells were cultured for a further 96 hours after which time the media was aspirated and the plates stored at −70° C. Plates were removed from the freezer, and the cells were washed twice with 200 μl of 1×PBS. The cells were incubated for one hour at room temperature (R/T) with TBS/5% BSA (wash buffer, bovine serum albumin). Next the TGase primary antibody was added: 50 μl of monoclonal anti-Tgase I Ab B.C. diluted 1:2000 in wash buffer. The primary antibody was incubated for 2 hours at 37° C. and then rinsed 6× with wash buffer. Cells were then incubated with 50 μl of secondary antibody (Fab fragment, peroxidase conjugated anti-mouse IgG obtaining from Amersham) diluted 1:4,000 in wash buffer for two hours at 37° C., then rinsed three times with wash buffer. Following the rinse with washing buffer, the cells were rinsed 3× with PBS. For colourimetric development, the cells were incubated with 100 μl substrate solution (4 mg o-phenylenediamine and 3.3 μl 30% H2O2 in 10 ml 0.1M citrate buffer pH 5.0) for exactly five minutes, R/T, in darkness (under aluminum foil). The reaction was stopped by the addition of 50 μl 4 N H2SO4. […] Out of the five replicates, four were treated with both antibodies, the fifth one was use as a Tgase background control. Tgase levels were determined and expressed as percentage control.
A suspension of keratinocytes was prepared at a concentration of 3000 cells/200 μl/well in KGM medium (Used 3×10^5 cells/12 ml media in each microtitre plate)
200 μl of the keratinocyte suspension was transferred into each of the inner 60 wells only.
Each plate was incubated at 37° C. and 5% CO2 for 3 days or until cells are ˜50% confluent.
Stock solutions of the samples were prepared in DMSO.
The samples were diluted to desired concentration with the final assay concentration of DMSO being 0.1%.

For a further assay, the system named is Retinol Dehydrogenase. Put plainly: Assay for retinol dehydrogenase activity, rat liver microsomes (to identify B2). It is filed as biochemical. To be noted: test compound final 100 μM. The protocol:
2.2 Isolation of Rat Liver Microsomes (4)
The resulting homogenate was successively centrifuged for 30 min. at 10,000 g, 30 min. at 20,000 g, and 15 min. at 30,000 g, and the resulting supernatant was ultra-centrifuged for 80 min. at 105,000 g. […] Protein concentrations were determined as described above.
2.4 Assay for Retinol Dehydrogenase Activity (to Identify B2)
The following stock solutions were prepared:
50 mM KH2PO4, pH 7.4 buffer, sterile filtered.
10 mM all trans Retinol (Sigma 87632) in DMSO.
200 mM Nicotinamide adenine dinucleotide phosphate, sodium salt (NADP) (Sigma N0505) in sterile water.
40 mM test compound in appropriate solvent (water, buffer, ethanol, chloroform or DMSO).
1:10 dilution of rat liver Microsomes in 50 mM KH2PO4, pH 7.4 buffer (4 μg/μl).
In a two-dram glass vial with screw cap, the following were added in order:
Buffer to give a final volume of 400 μl
25 μl diluted Microsomes (final=100 μg)—boiled Microsomes were used for controls and regular Microsomes for test samples.
4 μl of 200 mM NADP (final=2 mM)
1 μl of 40 mM test compound (final=100 μM)
8 μl of 10 mM retinol (final=200 μM)
The vials were incubated in a 37° C. shaking water bath for 45 minutes. 500 μl ice-cold ethanol was added to each vial to quench the reaction. The retinoids were extracted twice with ice cold hexane (2.7 ml per extraction). […]
In general terms: Liver microsomes are a subcellular fraction often used to study metabolism.

[2] abbreviates: in the presence of 10^-7M retinol.

“And” between values parts separate entries of the source, which are not always exact repeats. Identical values can stand only once.

Consider Phosphatidyl Choline, for which the “TG as % C Compd 1” value in assay [1] (Compound 1 alone, in the presence of 10^-7M retinol) came out at 88 % C; in assay [1] (compound 1 alone, with retinol), 98 % C. Besides, the “TG as % C Compd 2” value in assay [1] (Compound 2 alone, in the presence of 10^-7M retinol) was 88 % C; in assay [1] (compound 2 alone, with retinol, listed as Phospahtidylcholine), 97 % C; in assay [1] (compound 2 alone, with retinol, listed as Phosphatidyl choline), 98 % C; in assay [1] (compound 2 alone, with retinol, listed as Phosphatidylcholine), 97 % C. For the same substance, in assay [1] (setting [2]), the “TG as % C, Compd 3” value was determined as 88 % C. For the same substance, the “Tgase levels (Mean)” value is given as 159 % of control in assay [1] (booster 1.2E−08 Molar); 120.3 % of control in assay [1] (booster 1.47E−05 Molar); 98.8 % of control in assay [1] (booster 1.63E−06 Molar); 75.9 % of control in assay [1] (booster 1.8E−07 Molar); 85.5 % of control in assay [1] (booster 2.4E−09 Molar); 90.9 % of control in assay [1] (booster 4.4E−05 Molar). Moreover, the “Tgase levels (Mean)” value in assay [1] (booster 4.89E−06 Molar) was 70.1 % of control; in assay [1] (booster 5.43E−07 Molar) it was 86.7 % of control; in assay [1] (booster 6.0E−08 Molar), 87.8 % of control. Besides, the “% Increase Retinol Dehydrogenase” value in the assay on Retinol Dehydrogenase is given as 21% increase.

Take Sphingomyelin: the “TG as % C, Compd 3” value in assay [1] (setting [2]) is on record as 60 % C. Moreover, the “Tgase levels (Mean)” value in assay [1] (booster 1.0E−05 Molar) is 77.8 % of control; in assay [1] (booster 1.1E−06 Molar), 98.8 % of control; in assay [1] (booster 1.23E−07 Molar) it was 70.0 % of control; in assay [1] (booster 1.65E−09 Molar), 68.4 % of control; in assay [1] (booster 3.0E−05 Molar) it was 45 % of control; in assay [1] (booster 3.29E−10 Molar) it was 69.2 % of control. Moreover, the “Tgase levels (Mean)” value in assay [1] (booster 3.33E−06 Molar) is on record as 76.4 % of control; in assay [1] (booster 3.73E−07 Molar) it was 91.6 % of control; in assay [1] (booster 4.10E−08 Molar) it was 74.6 % of control; in assay [1] (booster 8.2E−08 Molar), 115.2 % of control. Moreover, in assay [1] (compound 2 alone, with retinol), the “TG as % C Compd 2” value is 84 % C and 98 % C. In addition, the “% Increase Retinol Dehydrogenase” value in the assay on Retinol Dehydrogenase was determined as 26% increase.
